{"source": "patent US10602743B2", "about": "“Method of inducing drought/salt tolerance using Bacillus megaterium” (Marrone Bio Innovations, Inc., priority 2012, dated 2020)", "test_system": "Bacillus megaterium strain H491", "assay": "Chemical sensitivity, Biolog Phenotypic Microarray", "format": "cell-based", "conditions": "Biolog Phenotypic Microarray; for H491 susceptible to compound: 25° C.; for Resistance of H491 observed in wells containing compound: at a maximum concentration of 4 ug"}
{"smiles": "O=B[O-].[Na+]", "note": "[Sodium metaborate]", "values": [{"measurement": "H491 susceptible to compound", "value": "susceptible"}]}
{"smiles": "[Na+].[Na+].[Na+].[O]=[V]([O-])([O-])[O-]", "note": "[Sodium orthovanadate]", "values": [{"measurement": "H491 susceptible to compound", "value": "susceptible"}]}
{"smiles": "[Na+].[O-][I+3]([O-])([O-])[O-]", "note": "[Sodium periodate]", "values": [{"measurement": "H491 susceptible to compound", "value": "susceptible"}]}
{"smiles": "Nc1ccc(S(=O)(=O)Nc2ccc(Cl)nn2)cc1", "note": "[Sulfachloropyridazine]", "values": [{"measurement": "H491 susceptible to compound", "value": "susceptible"}]}
{"smiles": "Nc1ccc(S(=O)(=O)Nc2ncccn2)cc1", "note": "[Sulfadiazine]", "values": [{"measurement": "H491 susceptible to compound", "value": "susceptible"}]}
{"smiles": "Cc1cc(NS(=O)(=O)c2ccc(N)cc2)no1", "note": "[Sulfamethoxazole]", "values": [{"measurement": "H491 susceptible to compound", "value": "susceptible"}]}
{"smiles": "Nc1ccc(S(N)(=O)=O)cc1", "note": "[Sulfanilamide]", "values": [{"measurement": "H491 susceptible to compound", "value": "susceptible"}]}
{"smiles": "Nc1ccc(S(=O)(=O)Nc2nccs2)cc1", "note": "[Sulfathiazole]", "values": [{"measurement": "H491 susceptible to compound", "value": "susceptible"}]}
{"smiles": "CCN(CC)C(=S)SSC(=S)N(CC)CC", "note": "[Tetraethylthiuram disulfide]", "values": [{"measurement": "H491 susceptible to compound", "value": "susceptible"}]}
{"smiles": "c1ccc(-c2nn(-c3ccccc3)[n+](-c3cccc4ccccc34)n2)cc1", "note": "[Tetrazolium violet]", "values": [{"measurement": "H491 susceptible to compound", "value": "susceptible"}]}
{"smiles": "CC(=O)[O-].[Tl+]", "note": "[Thallium (I) acetate]", "values": [{"measurement": "H491 susceptible to compound", "value": "susceptible"}]}
{"smiles": "CS(=O)(=O)c1ccc([C@@H](O)[C@@H](CO)NC(=O)C(Cl)Cl)cc1", "note": "[Thiamphenicol]", "values": [{"measurement": "H491 susceptible to compound", "value": "susceptible"}]}
{"smiles": "CSc1ccc2c(c1)N(CCC1CCCCN1C)c1ccccc1S2", "note": "(stereo not drawn) [Thioridazine]", "values": [{"measurement": "H491 susceptible to compound", "value": "susceptible"}]}
{"smiles": "O=C(O)c1ccccc1S", "note": "[Thiosalicylate]", "values": [{"measurement": "H491 susceptible to compound", "value": "susceptible"}]}
{"smiles": "CCS(=O)(=O)CCn1c([N+](=O)[O-])cnc1C", "note": "[Tinidazole]", "values": [{"measurement": "H491 susceptible to compound", "value": "susceptible"}]}
{"smiles": "NC[C@H]1O[C@H](O[C@H]2[C@H](O)[C@@H](O[C@H]3O[C@H](CO)[C@@H](O)[C@H](N)[C@H]3O)[C@H](N)C[C@@H]2N)[C@H](N)C[C@@H]1O", "note": "[Tobramycin]", "values": [{"measurement": "H491 susceptible to compound", "value": "susceptible"}]}
{"smiles": "Cc1ccc(N(SC(F)(Cl)Cl)S(=O)(=O)N(C)C)cc1", "note": "[Tolylfluanid]", "values": [{"measurement": "H491 susceptible to compound", "value": "susceptible"}]}
{"smiles": "CN1CCN(CCCN2c3ccccc3Sc3ccc(C(F)(F)F)cc32)CC1", "note": "[Trifluoperazine]", "values": [{"measurement": "H491 susceptible to compound", "value": "susceptible"}]}
{"smiles": "O=c1[nH]c(=O)n([C@H]2C[C@H](O)[C@@H](CO)O2)cc1C(F)(F)F", "note": "[Trifluorothymidine]", "values": [{"measurement": "H491 susceptible to compound", "value": "susceptible"}]}
{"smiles": "CO[C@H]1C[C@H](O[C@H]2[C@H](C)[C@@H](O[C@@H]3O[C@H](C)C[C@H](N(C)C)[C@H]3OC(C)=O)[C@@H](C)C[C@@]3(CO3)C(=O)[C@H](C)[C@@H](OC(C)=O)[C@@H](C)[C@@H](C)OC(=O)[C@@H]2C)O[C@@H](C)[C@@H]1OC(C)=O", "note": "[Troleandomycin]", "values": [{"measurement": "H491 susceptible to compound", "value": "susceptible"}]}
{"smiles": "CC[C@H]1OC(=O)C[C@@H](O)[C@H](C)[C@@H](O[C@@H]2O[C@H](C)[C@@H](O[C@H]3C[C@@](C)(O)[C@@H](O)[C@H](C)O3)[C@H](N(C)C)[C@H]2O)[C@@H](CC=O)C[C@@H](C)C(=O)/C=C/C(C)=C/[C@@H]1CO[C@@H]1O[C@H](C)[C@@H](O)[C@@H](OC)[C@H]1OC", "note": "[Tylosin]", "values": [{"measurement": "H491 susceptible to compound", "value": "susceptible"}]}
{"smiles": "CN[C@H](CC(C)C)C(=O)N[C@H]1C(=O)N[C@@H](CC(N)=O)C(=O)N[C@H]2C(=O)N[C@H]3C(=O)N[C@H](C(=O)N[C@H](C(=O)O)c4cc(O)cc(O)c4-c4cc3ccc4O)[C@H](O)c3ccc(c(Cl)c3)Oc3cc2cc(c3O[C@@H]2O[C@H](CO)[C@@H](O)[C@H](O)[C@H]2O[C@H]2C[C@](C)(N)[C@H](O)[C@H](C)O2)Oc2ccc(cc2Cl)[C@H]1O", "note": "[Vancomycin]", "values": [{"measurement": "H491 susceptible to compound", "value": "susceptible"}]}
{"smiles": "NCC[C@H](O)C(=O)N[C@@H]1C[C@H](N)[C@@H](O[C@H]2O[C@H](CN)[C@@H](O)[C@H](O)[C@H]2O)[C@H](O)[C@H]1O[C@H]1O[C@H](CO)[C@@H](O)[C@H](N)[C@H]1O", "note": "[amikacin]", "values": [{"measurement": "Resistance of H491 observed in wells containing compound", "value": "Resistance"}]}
{"smiles": "CCn1cc(C(=O)O)c(=O)c2cc(F)c(N3CCNC(C)C3)c(F)c21", "note": "(stereo not drawn) [lomefloxacin]", "values": [{"measurement": "Resistance of H491 observed in wells containing compound", "value": "Resistance"}]}
